# System: 817829-284-R-J1-PDC complex spheroid viability
# Assay: Anticancer human tumor 817829-284-R-J1-PDC patient-derived colon adenocarcinoma cell line growth inhibition [POLQ]
# Settings: for IC50: curve of first compound; for viability, T/C: stronger effect = lower value
# Experimental: Multicellular complex tumor spheroid response to Polymerase (POL) inhibitors (novobiocin, ART-558, RP6685) in combination with a variety of drugs and investigational agents in selected tumor cell lines
# The POL inhibitors (novobiocin, ART-558, and RP6685) were evaluated both individually and in combination with standard of care and investigational anticancer small molecules within a complex spheroid model of solid tumors. . Complex spheroids include a stromal component modeled by human endothelial cells (HUVEC) and fibroblasts modeled by human mesenchymal stem cells (MSCs). The concentration ranges selected for each drug and investigational agent were based upon clinically achievable concentrations if the clinical Cmax of the agent was known.
# Compounds. The drugs and investigational agents: novobiocin (NSC847541), ART-558 (NSC835418), RP-6685 (NSC848927), peposertib (NSC802822), ceralasertib (NSC780249), elimusertib (NSC800525), camonsertib (NSC841442), AZD-1390 (NSC803789), olaparib (NSC753686), talazoparib (NSC767125), rucaparib (NSC756644), sotorasib (NSC818433), MRTX-1133 (NSC836407), SN-38 (NSC673596), topotecan (NSC609699), epotoside (NSC141540), doxorubicin (NSC123127), gemcitabine (NSC613327), 5-fluorouracil (NSC19893), paclitaxel (NSC125973), vemurafenib (NSC761431), MSA-2 (NSC828583), SN-011 (NSC837082), adavosertib (NSC754352), prexasertib (NSC758257), carboplatin (NSC241240) and oxaliplatin (NSC266046), were obtained from the National Cancer Institute (NCI) Developmental Therapeutics Program Chemical Repository (21). The FDA-approved anticancer drug set is available from the Developmental Therapeutics Program at https://dtp.cancer.gov/organization/dscb/obtaining/. […] The stock solutions were prepared in dimethyl sulfoxide (DMSO, Sigma-Aldrich, St. Louis, MO, cat. D2650), except for the platinum compounds which were prepared in saline (Quality Biological, Gaithersburg, MD, cat. 114-055-101), at 800-fold the tested concentration and stored at -70 degrees C prior to their use. All drugs and investigational agents were tested over a range starting from a high concentration at or near the clinical Cmax and decreasing in half-log increments. If the clinical Cmax for an agent had not been determined, the highest concentration tested was 10 microM, except for SN-38, which was tested at a high concentration of 1 microM.
# Cell Culture. All cells were maintained in an incubator at 37 degrees C and 5% CO2 with 95% humidity. The PDC lines were cultured according to standard operating procedures established by the NCI PDMR (https://pdmr.cancer.gov). Table 3 of the manuscript, lists the cell lines along with the number of the three cell types plated to form the mct-spheroids and media for tumor cell growth. After thawing, all PDC lines, except 997537-175-T-J1-PDC and 415267-285-R-J2-PDC, were cultured in Matrigel-coated flasks prepared with a working solution of 1X Ham's F-12 nutrient mix, without supplementation (Thermo Fisher Scientific, cat. 11765054), 100 U/mL penicillin-streptomycin (Thermo Fisher Scientific, cat. 15140122), and 2.5% Matrigel (Corning Inc., Corning, NY, cat. 354248) for the first three passages. The two PDC lines 997537-175-T-J1-PDC and 415267-285-R-J2-PDC were cultured on uncoated flasks. The 857933-349-R-J2-PDC line was cultured in 6C/Colon 1B media containing advanced DMEM/F-12 (Thermo Fisher Scientific, cat. 12634028), 10 mM HEPES (Thermo Fisher Scientific, cat. 15630080), 1X GlutaMAX supplement (Thermo Fisher Scientific, cat. 35050061), 0.1 mg/mL primocin (InvivoGen, San Diego, CA, cat. ant-pm-2), 10% defined fetal bovine serum, heat inactivated (HyClone Laboratories Inc., Logan, UT, cat. SH30070.03HI), 50% L-WRN conditioned media (ATCC, cat. CRL-3276), 1.25 mM N-Acetyl-L-cysteine (Sigma-Aldrich, cat. A9165), 10 mM nicotinamide (Sigma-Aldrich, cat. N0636), 1X B-27 supplement (Thermo Fisher Scientific, cat. 17504044), 1X N-2 supplement (Thermo Fisher Scientific, cat. […]
# 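Note: spheroids exposed to compounds for 7 days.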
# 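Throughout, for viability, T/C: 100% = DMSO vehicle-treated spheroids.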
compound,measurement,setting,value
CC(=O)O[C@H]1C(=O)[C@@]2(C)[C@H]([C@H](OC(=O)c3ccccc3)[C@]3(O)C[C@H](OC(=O)[C@H](O)[C@@H](NC(=O)c4ccccc4)c4ccccc4)C(C)=C1C3(C)C)[C@]1(OC(C)=O)CO[C@@H]1C[C@@H]2O + COC1C(OC(N)=O)C(O)C(Oc2ccc3c(O)c(NC(=O)c4ccc(O)c(CC=C(C)C)c4)c(=O)oc3c2C)OC1(C)C,IC50,second compound 0.0316 µM,< 9.49 nM
same,IC50,second compound 0.1 µM,< 9.49 nM
same,IC50,second compound 0.316 µM,< 9.49 nM
same,IC50,second compound 1 µM,< 9.49 nM
same,IC50,second compound 3.16 µM,< 9.49 nM
same,IC50,second compound 10 µM,< 9.49 nM
same,"viability, T/C","second compound 0.0316 µM, first compound 0.00949 µM",6.3%
same,"viability, T/C","second compound 0.0316 µM, first compound 0.03 µM",5.64%
same,"viability, T/C","second compound 0.0316 µM, first compound 0.0949 µM",4.85%
same,"viability, T/C","second compound 0.0316 µM, first compound 0.3 µM",4.95%
same,"viability, T/C","second compound 0.0316 µM, first compound 0.949 µM",4.91%
same,"viability, T/C","second compound 0.0316 µM, first compound 3 µM",5.21%
same,"viability, T/C","second compound 0.1 µM, first compound 0.00949 µM",5.46%
same,"viability, T/C","second compound 0.1 µM, first compound 0.03 µM",4.45%
same,"viability, T/C","second compound 0.1 µM, first compound 0.0949 µM",4.97%
same,"viability, T/C","second compound 0.1 µM, first compound 0.3 µM",5.08%
same,"viability, T/C","second compound 0.1 µM, first compound 0.949 µM",4.85%
same,"viability, T/C","second compound 0.1 µM, first compound 3 µM",5.2%
same,"viability, T/C","second compound 0.316 µM, first compound 0.00949 µM",5.79%
same,"viability, T/C","second compound 0.316 µM, first compound 0.03 µM",5.7%
same,"viability, T/C","second compound 0.316 µM, first compound 0.0949 µM",5.32%
same,"viability, T/C","second compound 0.316 µM, first compound 0.3 µM",4.7%
same,"viability, T/C","second compound 0.316 µM, first compound 0.949 µM",4.56%
same,"viability, T/C","second compound 0.316 µM, first compound 3 µM",4.8%
same,"viability, T/C","second compound 1 µM, first compound 0.00949 µM",5.74%
same,"viability, T/C","second compound 1 µM, first compound 0.03 µM",5.47%
same,"viability, T/C","second compound 1 µM, first compound 0.0949 µM",5.82%
same,"viability, T/C","second compound 1 µM, first compound 0.3 µM",4.18%
same,"viability, T/C","second compound 1 µM, first compound 0.949 µM",4.64%
same,"viability, T/C","second compound 1 µM, first compound 3 µM",5.33%
same,"viability, T/C","second compound 3.16 µM, first compound 0.00949 µM",5.62%
same,"viability, T/C","second compound 3.16 µM, first compound 0.03 µM",5.09%
same,"viability, T/C","second compound 3.16 µM, first compound 0.0949 µM",4.79%
same,"viability, T/C","second compound 3.16 µM, first compound 0.3 µM",4.48%
same,"viability, T/C","second compound 3.16 µM, first compound 0.949 µM",4.83%
same,"viability, T/C","second compound 3.16 µM, first compound 3 µM",4.67%
same,"viability, T/C","second compound 10 µM, first compound 0.00949 µM",5.28%
same,"viability, T/C","second compound 10 µM, first compound 0.03 µM",5.23%
same,"viability, T/C","second compound 10 µM, first compound 0.0949 µM",5.99%
same,"viability, T/C","second compound 10 µM, first compound 0.3 µM",5.05%
same,"viability, T/C","second compound 10 µM, first compound 0.949 µM",4.95%
same,"viability, T/C","second compound 10 µM, first compound 3 µM",5.41%
COc1cccc2c1C(=O)c1c(O)c3c(c(O)c1C2=O)CC(O)(C(=O)CO)CC3OC1CC(N)C(O)C(C)O1 (centres undefined) + COC1C(OC(N)=O)C(O)C(Oc2ccc3c(O)c(NC(=O)c4ccc(O)c(CC=C(C)C)c4)c(=O)oc3c2C)OC1(C)C,IC50,second compound 0.0316 µM,110 nM
same,IC50,second compound 0.1 µM,< 31.6 nM
same,IC50,second compound 0.316 µM,< 31.6 nM
same,IC50,second compound 1 µM,109 nM
same,IC50,second compound 3.16 µM,143 nM
same,IC50,second compound 10 µM,< 31.6 nM
same,"viability, T/C","second compound 0.0316 µM, first compound 0.0316 µM",17.6%
same,"viability, T/C","second compound 0.0316 µM, first compound 0.1 µM",90.5%
same,"viability, T/C","second compound 0.0316 µM, first compound 0.316 µM",5.53%
same,"viability, T/C","second compound 0.0316 µM, first compound 1 µM",1.37%
same,"viability, T/C","second compound 0.0316 µM, first compound 3.16 µM",0.16%
same,"viability, T/C","second compound 0.0316 µM, first compound 10 µM",0.52%
same,"viability, T/C","second compound 0.1 µM, first compound 0.0316 µM",16.5%
same,"viability, T/C","second compound 0.1 µM, first compound 0.1 µM",75.1%
same,"viability, T/C","second compound 0.1 µM, first compound 0.316 µM",6.74%
same,"viability, T/C","second compound 0.1 µM, first compound 1 µM",0.41%
same,"viability, T/C","second compound 0.1 µM, first compound 3.16 µM",0.25%
same,"viability, T/C","second compound 0.1 µM, first compound 10 µM",0.49%
same,"viability, T/C","second compound 0.316 µM, first compound 0.0316 µM",14.3%
same,"viability, T/C","second compound 0.316 µM, first compound 0.1 µM",82%
same,"viability, T/C","second compound 0.316 µM, first compound 0.316 µM",7.31%
same,"viability, T/C","second compound 0.316 µM, first compound 1 µM",0.98%
same,"viability, T/C","second compound 0.316 µM, first compound 3.16 µM",0.19%
same,"viability, T/C","second compound 0.316 µM, first compound 10 µM",0.45%
same,"viability, T/C","second compound 1 µM, first compound 0.0316 µM",22.7%
same,"viability, T/C","second compound 1 µM, first compound 0.1 µM",84.3%
same,"viability, T/C","second compound 1 µM, first compound 0.316 µM",6.03%
same,"viability, T/C","second compound 1 µM, first compound 1 µM",1.44%
same,"viability, T/C","second compound 1 µM, first compound 3.16 µM",0.19%
same,"viability, T/C","second compound 1 µM, first compound 10 µM",0.51%
same,"viability, T/C","second compound 3.16 µM, first compound 0.0316 µM",21.1%
same,"viability, T/C","second compound 3.16 µM, first compound 0.1 µM",119%
same,"viability, T/C","second compound 3.16 µM, first compound 0.316 µM",6.03%
same,"viability, T/C","second compound 3.16 µM, first compound 1 µM",0.63%
same,"viability, T/C","second compound 3.16 µM, first compound 3.16 µM",0.27%
same,"viability, T/C","second compound 3.16 µM, first compound 10 µM",0.51%
same,"viability, T/C","second compound 10 µM, first compound 0.0316 µM",15.7%
same,"viability, T/C","second compound 10 µM, first compound 0.1 µM",83.3%
same,"viability, T/C","second compound 10 µM, first compound 0.316 µM",5.98%
same,"viability, T/C","second compound 10 µM, first compound 1 µM",0.49%
same,"viability, T/C","second compound 10 µM, first compound 3.16 µM",0.31%
same,"viability, T/C","second compound 10 µM, first compound 10 µM",0.47%

# — PubChem BioAssay AID1963839 (Molecular Pharmacology Branch, DTP, NCI, 2024)
